What was measured:
[1] = tested on: Minimal Clonic Seizure; assay: Minimal Electroshock / Psychomotor (Minimal Clonic) Seizure test (MCS); assay type: in vivo, mice; conditions: for anticonvulsant activity against MCS, complex versus individual constituents: mouse, in vivo
Description: (§1) Anticonvulsant activities were determined by the National Institutes of Health-National Institute of Neurological Disorders and Stroke-Antiepileptic Drug Development program for the detection and evaluation of compounds as anticonvulsants agents. Compounds were suspended in polyethylene glycol prior to injection into male Carworth Farms #1 mice. In Phase I studies, identification of anti-convulsant activity, test compounds were given intraperitonealy (ip) at 57, 188 and 570 milligrams-per-kilogram (mg/kg) of body mass, and protection against Maximal Electroshock (MES), Minimal Electroshock (MCS) and/or Metrazol (scMET) induced seizures was determined 30 min and 4 h later. All statistics were obtained by Probit analysis.
This test was designed to detect compounds that are missed with the MES tests which employ a larger current of 50 mA. The delivery of a less intense electric stimulation which produces less intense stimulation of the CNS (Central Nervous System) and brain inflammation than the MES test, via corneal electrodes of 6 Hz, 32 mA or slightly higher current, for 3 s, is used to produce psychomotor seizures, following instillation of a drop of 0.9% saline solution prior to this application of electric current. Abolition of the visual stereotypic behavior characterized as minimal automatist behaviors, similar to the aura that human patients experience during psychomotor seizure, is defined as antipsychomotor seizure activity.

[2] = tested on: zebrafish larvae; assay: Toxicological evaluation (Maximum Tolerated Concentration) in zebrafish larvae; assay type: in vivo; conditions: 100 µM; 24 h exposure of larvae
Description: (§2) All chemicals were firstly dissolved in dimethylsulfoxide, DMSO 99.5% (GC) Sigma-Aldrich), and then diluted in embryo medium E3 (5 mM NaCl, 0.17 mM KCl, 0.33 mM CaCl2, 0.33 mM Mg2SO4, 10-5% methylene blue).
(§3) During the course of the experiments, transgenic zebrafish of the fli-1: EGFP lines were used. Once the fertilized eggs were collected, they were reared in embryo medium E3 in an incubator at 28° C. The 20 hours post fertilization (hpf), 1-phenyl-2-thiourea (PTU) (Sigma-10×(0.03%)) was added to larvae's medium in 1:9 proportion to prevent the formation of melanophores in zebrafish embryos and larvae [Karlsson, J., von Hofsten, J. and Olsson, P. Mar. Biotechnol., 2001, 3, 522-527].
The Maximum Tolerated Concentration (MTC) was defined as the maximum concentration at which no death or signs of toxicity (in the circulatory system) were observed.
The MTC in the fish water was initially determined by incubating zebrafish larvae resulting from 4 days post fertilization (dpf) with compounds assayed in E3. During 24 hours, 5 larvae of zebrafish per well were placed in a tissue culture in 24 well plates using tested compounds at 10 μM, 30 μM and 100 μM concentration in the medium. Following the 24 h period of incubation, the characteristics of the zebrafish larvae were examined. The MTC were determined in treated groups at 5 dpf after 24 h exposure to the tested drugs.

[3] = tested on: leukocyte migration; assay: Anti-inflammatory tail section assay, leukocyte migration in zebrafish; assay type: in vivo
Description: as §2, §3
The experimental corroboration of anti-inflammatory activity was done by using a new in vivo test development using zebrafish biological material [Siverio-Mota, D., de Witte, P. et al, 2009, in preparation]. The principal aspects of this new biological assay are the following. First, ten larvae from 4 dpf were used per treated and control groups. In each case, the MTC was used as the assay concentration and indomethacin (Merck Sharp & Dohme) at 30 μM was used as control group. These larvae were placed in wells of a 24 wells tissue culture plate at assay's concentrations in ImL final volume. After one hour, the larvae were anesthetized by immersion in E3 containing tricaine (Westerfield, M., The Zebrafish Book: A Guide for the Laboratory Use of Zebrafish (Brachydanio rerio). 1995, Eugene, Oreg., University of Oregon Press), the complete section of the tail was performed with a sterile scalpel. Once tails were cut, zebrafish were placed again in a 24 wells tissue culture plate at assay's concentrations together with 10 μg/mL solution of lipopolysaccharide to stimulate the leukocyte migration. The temperature of incubation was kept from 20 to 22° C. […]
Anti-inflammatory activity was evaluated following the steps described above. Leukocyte migration to damaged zone (end tail) was observed and evaluated as the parameter determining the anti-inflammatory activity of the tested compounds. […]

[4] = tested on: Maximal Electroshock (MES) induced seizures; assay: Maximal Electroshock Seizure (MES) test; assay type: in vivo; conditions: mice ip 57, 188, or 570 µmg/kg; challenge 0.5 and 4 h after treatment
Description: as §1, with “([…])” for “(ip) at 57, 188 and 570 milligrams-per-kilogram (mg/kg)”
Maximal electroshock seizure (MES) were elicited with a 60 cycles alternating current of 50 mA, five to seven times that necessary to elicit minimal electroshock seizures, delivered for 0.2 s via corneal electrodes. A drop of 0.9% saline solution was instilled into both eyes prior to application of electrodes in order to prevent death. Abolition of the hind limb tonic extension component of seizure is defined as anticonvulsant activity.

[5] = tested on: Metrazol (scMET) induced seizures; assay: Subcutaneous Metrazol seizure threshold test (scMET), mice; assay type: in vivo
Description: Anticonvulsant activities were determined by the National Institutes of Health-National Institute of Neurological Disorders and Stroke-Antiepileptic Drug Development program for the detection and evaluation of compounds as anticonvulsants agents. Compounds were suspended in polyethylene glycol prior to injection into male Carworth Farms #1 mice. […] All statistics were obtained by Probit analysis.
A dose of Pentylenetetrazol, a potent CNS stimulant, which produces seizures in greater than 97% of treated mice, at 85 mg/kg of body mass, was administered s.c. as a 0.5% saline solution at the posterior neck midline. […] Failure to observe even a threshold seizure, a single episode of clonic spasms of at least five second duration, is defined as anticonvulsant activity.

[6] = tested on: MET-induced seizures; assay: Metrazol seizure test, oral treatment of rats; assay type: in vivo; conditions: rats oral 94 μmol/kg
[7] = Rotating rod test (Rotorod Toxicity), mice; assay type: in vivo; conditions: for Rotorod Toxicity: challenge 0.5 and 4 h
Text: (§4) This qualitative test was used to evaluate ‘neurotoxicity’, central nervous system stimulation or depression. Depression of CNS activity is a common feature of all antiepileptic drugs. Mice or rats are placed on a 1 inch diameter knurled plastic rod rotating at 6 revolutions per min. Normal mice and rats can remain on a rod rotating at this speed indefinitely. […] It may be attributed to CNS depression due to sedative and/or hypnotic activities, or a state of eminent death, due to medullary paralysis at high doses, a common unwanted side effect caused by high doses of all anticonvulsant drugs.

[8] = Rotating rod test (Rotorod Toxicity), rats; assay type: in vivo; conditions: rats oral 94 μmol/kg; challenge 0.25, 0.5, 1, 2, and 4 h
Text: as §4

For `c1cnc2c(c1)ccc1cccnc12` [phenanthroline, 1,10-phenanthroline, reference compound], the “anticonvulsant activity against MCS, complex versus individual constituents” value [1] was “no anticonvulsant of activity”.
`CCCC(CCC)C(=O)O` [sodium valproate, reference compound] gave an ED50 ([1]; Mus musculus, same paradigm, sodium valproate) of 2800 µmol/kg.
With `CCCC(CCC)C(=O)O` [valproic acid, 2-propylpentanoic acid] the “anticonvulsant activity against MCS, complex versus individual constituents” value [1] was “much less potency”.
With `CCCC(CCC)C(=O)[O-].CCCC(CCC)C(=O)[O-].[Mg+2]` [Compound 7] the toxicity in zebrafish [2] was “did not show any toxicity” and the “anti-inflammatory result, ranking in words” value ([3]; zebrafish) was “best result”.
In the case of `CCCC(CCC)C(=O)[O-].CCCC(CCC)C(=O)[O-].[Cu+2].c1cnc2c(c1)ccc1cccnc12` [Compound 4, bis-(2-propylpentanoato)(1,10-phenanthroline)copper(II)], the “anticonvulsant activity, MES challenge” value [4] is reported as “inactive”, the “TPE (Time to Peak Effect)” value ([1]; 18 μmol/kg) is reported as 2 h and the “activity against Minimal Clonic seizure” value ([1]; 18 mol/kg, challenge times 1, 2, and 4 h) is reported as “activity was found”. For the same compound, the “ED50, Minimal Clonic seizure” value ([1]; mice) was 8 µmol/kg, the “toxicity observed in MCS test” value ([1]; mice 188 μmol/kg, 0.25, 0.5, 1, and 2 h) was “inability to grasp the rotating rod” and the “deaths in MCS test” value ([1]; mice 188 μmol/kg, 2 h challenge time) was “three deaths”. The “deaths in MCS test” value ([1]; mice 188 μmol/kg, before the 4 h challenge) was “all mice died”, the “activity against Minimal Clonic seizure” value ([1]; mice 188 μmol/kg, challenge 0.25, 0.5, 1, and 2 h) was “active” and the “toxicity in MCS test” value ([1]; mice 2.25, 4.5, 9, 18, and 36 μmol/kg, 2 h) was “absence of toxicity”. For the same compound, the “protection against the Minimal Clonic seizure” value ([1]; mice 2.25, 4.5, 9, 18, and 36 μmol/kg, challenge at 2 h) was “dose-related increase in protection”, the “deaths in MCS test” value ([1]; mice ip 94 μmol/kg, after the 2 h challenge) was “two deaths” and the “protection against Minimal Clonic Seizure” value ([1]; mice ip 94 μmol/kg, challenge 0.25, 0.5, 1, and 2 h) was “protected”. The “toxicity observed in MCS test” value ([1]; mice ip 94 μmol/kg, most mice) was “Minimal motor impairment”, the “deaths in MCS test” value ([1]; mice ip 94 μmol/kg, prior to challenge at 4 h) was “All treated mice died” and the “anticonvulsant activity against MCS, complex versus individual constituents” value [1] was “μmolar level”. The “deaths in scMET test” value ([5]; 188 μmol/kg at 4 h challenge and 570 μmol/kg at 0.5 challenge time) was “deaths occurring without seizure”, the “anticonvulsant activity, scMET seizure model” value ([5]; mice 5.7, 19, 57, 188, and 570 μmol/kg, challenge 0.5 and 4 h) was “inactive” and the “adverse effects in MET test” value [6] was “continuous seizure activity, death following continuous seizure activity, or tonic seizure extension”. The “protection against MET-induced seizures” value ([6]; challenge 0.25, 0.5, 1, 2, and 4 h) was “not protective”, the “deaths in Rotorod test” value ([7]; mice 188 μmol/kg, 4 h challenge time) was “three deaths” and the “Rotorod Toxicity” value ([7]; mice 188 μmol/kg, impaired ability to grasp the rotating rod) was “observed”. For the same compound, the “Rotorod Toxicity” value ([7]; mice 570 μmol/kg) was “impaired ability to grasp the rotating rod, sedation, and deaths without seizure”, the “Rotorod Toxicity” value ([7]; mice ip 5.7, 19, and 57 μmol/kg) was “not observed” and the “Rotorod Toxicity” value [8] was “failed to evidence Rotorod Toxicity”.
With `[Cl][Cu][Cl]` [copper chloride, reference compound] the “anticonvulsant activity against MCS, complex versus individual constituents” value [1] was “no anticonvulsant of activity”.
In the case of `COc1ccc2c(c1)c(CC(=O)O)c(C)n2C(=O)c1ccc(Cl)cc1` [indomethacin, reference compound], the “percentage of relative leukocyte's migration” value ([3]; positive control, indomethacin at 30 μM) is reported as 20%.
With copper acetate [reference compound] the “anticonvulsant activity against MCS, complex versus individual constituents” value [1] was “no anticonvulsant of activity”.
For `CCCC(CCC)C(=O)[O-].CCCC(CCC)C(=O)[O-].CCCC(CCC)C(=O)[O-].CCCC(CCC)C(=O)[O-].[Cu+2].[Cu+2]` [Compound 3, Tetrakis-μ-2-propylpentanoato dicopper(II)], the “percentage of relative leukocyte's migration” value ([3]; zebrafish larvae, tail section + lipopolysaccharide, tested at MTC, 7 h) was 60%.

Reference: patent publication US20160166705A1, “THERAPEUTICAL USE OF TERNARY COMPLEXES OF VALPROIC ACID” (UNIVERSITE PARIS-SUD XI, priority 2009, published 2016)
